The record followed here is patent US20250171437A1 (Agios Pharmaceuticals,Inc., priority 2022, published 2025).

The test deals with T1, human PAH with the R408W mutation (A375 R408W cells) (Homo sapiens, UniProt P00439, R408W).
T1 construct: expressed in transfected cells
T1 sequence (P00439 1-452 R408W): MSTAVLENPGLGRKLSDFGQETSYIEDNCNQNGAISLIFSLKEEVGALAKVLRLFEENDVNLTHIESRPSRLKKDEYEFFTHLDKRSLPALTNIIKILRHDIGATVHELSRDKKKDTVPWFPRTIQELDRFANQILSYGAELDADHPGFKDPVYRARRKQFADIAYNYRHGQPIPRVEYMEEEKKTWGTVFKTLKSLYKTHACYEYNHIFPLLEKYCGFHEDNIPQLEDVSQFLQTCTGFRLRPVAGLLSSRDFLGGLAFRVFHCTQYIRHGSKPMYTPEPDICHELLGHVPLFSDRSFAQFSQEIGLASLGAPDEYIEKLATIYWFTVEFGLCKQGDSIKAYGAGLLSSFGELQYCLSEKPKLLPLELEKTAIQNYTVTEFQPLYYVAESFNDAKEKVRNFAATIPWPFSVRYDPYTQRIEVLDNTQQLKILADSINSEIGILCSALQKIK
The test is described as follows: Cell Based Phenylalanine Flux Assay. As to conditions: 24 hrs with compound, then 20 μM sepiapterin and 800 μM 13C9,15N-Phenylalanine for 4 hours, 13C-Tyrosine by LC-MS, average where tested multiple times. An outline of the steps: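 A375 cells stably expressing lentiviral human PAH R408W were treated with compounds (10-point 2-fold dilutions, 0.5% DMSO, duplicate) for 24 h at 37 °C. Then 20 μM sepiapterin and 800 μM 13C9,15N-Phe were added for 4 h; media 13C-Tyr was measured by LC-MS to give AC50.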

Where [1] appears, read: A375 cells expressing R408W PAH.

Some results are limits rather than exact numbers.

For `Cn1cnc(-c2nc(C(F)F)c(C(=O)N3CCc4[nH]cnc4[C@H]3c3nc4cccc(F)c4o3)o2)c1` [Example 892, (S)-(4-(difluoromethyl)-2-(1-methyl-1H-imidazol-4-yl)oxazol-5-yl)(4-(7-fluorobenzo[d]oxazol-2-yl)-1,4,6,7-tetrahydro-5H-imidazo[4,5-c]pyridin-5-yl)methanone], the AC50 (A375 R408W cells) was not above 0.5 µM.

Take `O=C(c1nnc(-c2ccccn2)o1)N1CCc2[nH]cnc2[C@@H]1c1nc2ccc(F)cc2o1` [Example 304, (R)-(4-(6-fluorobenzo[d]oxazol-2-yl)-6,7-dihydro-1H-imidazo[4,5-c]pyridin-5(4H)-yl)(5-(pyridin-2-yl)-1,3,4-oxadiazol-2-yl)methanone]: where the note is “A375 R408W cells”, the AC50 lay in the range of 1 to 5 µM.

Take `Cn1cc(-c2nnc(C(=O)N3CCc4[nH]cnc4[C@H]3c3nc4cccc(C(F)(F)F)c4o3)o2)cn1` [Example 830, (S)-(5-(1-methyl-1H-pyrazol-4-yl)-1,3,4-oxadiazol-2-yl)(4-(7-(trifluoromethyl)benzo[d]oxazol-2-yl)-6,7-dihydro-1H-imidazo[4,5-c]pyridin-5(4H)-yl)methanone]: the AC50 (A375 R408W cells) fell in the range of 0.5 to 1 µM.

In the case of `O=C(c1nnc(-c2cnn(S(=O)(=O)C3CC3)c2)o1)N1CCc2[nH]cnc2C1c1nc2cc(F)ccc2o1` (stereo not drawn), the AC50 under setting [1] was not below 5 µM.

Regarding `CC(C)(O)c1nc(C(F)F)c(C(=O)N2CCc3[nH]cnc3[C@@H]2c2nc3cc(C(F)(F)F)ccc3o2)o1` [Example 328, (R)-(4-(difluoromethyl)-2-(2-hydroxypropan-2-yl)oxazol-5-yl)(4-(5-(trifluoromethyl)benzo[d]oxazol-2-yl)-6,7-dihydro-1H-imidazo[4,5-c]pyridin-5(4H)-yl)methanone], the concentration at half-maximal activity (AC50) (A375 R408W cells) is not above 0.5 µM.

Take `CC(C)(O)c1ncc(C(=O)N2CCc3[nH]cnc3C2c2nc3ccc(F)c(F)c3o2)o1` (stereo not drawn): the concentration at half-maximal activity (AC50) under setting [1] was in the range of 1 to 5 µM.

On to `CC(C)(O)c1ncc(C(=O)N2CCc3[nH]cnc3C2c2nc3cc(F)ccc3o2)s1` (stereo not drawn), for which, under setting [1], the half-maximal activity concentration (AC50) is 1 to 5 µM.

As to `COc1cccc2nc([C@@H]3c4nc[nH]c4CCN3C(=O)c3ccnn3C3CC3)oc12` [Example 767, (S)-(1-cyclopropyl-1H-pyrazol-5-yl)(4-(7-methoxybenzo[d]oxazol-2-yl)-6,7-dihydro-1H-imidazo[4,5-c]pyridin-5(4H)-yl)methanone], for the setting “A375 R408W cells”, the AC50 is not above 0.5 µM.

On to `Cc1cc(F)cc2nc([C@H]3c4nc[nH]c4CCN3C(=O)c3oc(C(C)(C)O)nc3C(F)F)oc12` [Example 656, (R)-(4-(difluoromethyl)-2-(2-hydroxypropan-2-yl)oxazol-5-yl)(4-(5-fluoro-7-methylbenzo[d]oxazol-2-yl)-6,7-dihydro-1H-imidazo[4,5-c]pyridin-5(4H)-yl)methanone], for which, where the note is “A375 R408W cells”, the AC50 is 1 to 5 µM.

As for `O=C(c1nnc(-c2ccccn2)o1)N1CCc2[nH]cnc2[C@H]1c1nc2c(F)c(F)ccc2o1` [Example 629, (S)-(4-(4,5-difluorobenzo[d]oxazol-2-yl)-6,7-dihydro-1H-imidazo[4,5-c]pyridin-5(4H)-yl)(5-(pyridin-2-yl)-1,3,4-oxadiazol-2-yl)methanone], for the setting “A375 R408W cells”, the half-maximal activity concentration (AC50) lay within 0.5 to 1 µM.

For the compound `O=C(c1oc(-c2ccc(F)cn2)nc1C(F)F)N1CCc2[nH]cnc2[C@H]1c1nc2cccc(F)c2o1` [Example 632, (S)-(4-(difluoromethyl)-2-(5-fluoropyridin-2-yl)oxazol-5-yl)(4-(7-fluorobenzo[d]oxazol-2-yl)-6,7-dihydro-1H-imidazo[4,5-c]pyridin-5(4H)-yl)methanone], the AC50 (A375 R408W cells) is not above 0.5 µM.

`COc1ccc2c(C(=O)N3CCc4[nH]cnc4[C@@H]3c3nc4c(F)cccc4o3)cnn2c1` [Example 540, (R)-(4-(4-fluorobenzo[d]oxazol-2-yl)-6,7-dihydro-1H-imidazo[4,5-c]pyridin-5(4H)-yl)(6-methoxypyrazolo[1,5-a]pyridin-3-yl)methanone]: the half-maximal activity concentration (AC50) (A375 R408W cells) is 1 to 5 µM.

`O=C(c1nnc(-c2ccccn2)o1)N1CCc2[nH]cnc2[C@H]1c1nc2c(F)cccc2o1` [Example 333, (S)-(4-(4-fluorobenzo[d]oxazol-2-yl)-6,7-dihydro-1H-imidazo[4,5-c]pyridin-5(4H)-yl)(5-(pyridin-2-yl)-1,3,4-oxadiazol-2-yl)methanone]: under “A375 R408W cells”, the AC50 was not above 0.5 µM.

As for `Cc1nc(-c2cnn(C)c2)sc1C(=O)N1CCc2[nH]cnc2C1c1nc2cc(F)ccc2o1` (stereo not drawn), the AC50 under setting [1] was not below 5 µM.

For the compound `O=C(c1ocnc1C(F)F)N1CCc2[nH]cnc2[C@@H]1c1nc2c(F)cc(F)cc2o1` [Example 302, (R)-(4-(4,6-difluorobenzo[d]oxazol-2-yl)-6,7-dihydro-1H-imidazo[4,5-c]pyridin-5(4H)-yl)(4-(difluoromethyl)oxazol-5-yl)methanone], the concentration at half-maximal activity (AC50) (A375 R408W cells) was in the range of 1 to 5 µM.

Consider `COc1cccc2oc([C@H]3c4nc[nH]c4CCN3C(=O)c3cnco3)nc12` [Example 622, (R)-(4-(4-methoxybenzo[d]oxazol-2-yl)-6,7-dihydro-1H-imidazo[4,5-c]pyridin-5(4H)-yl)(oxazol-5-yl)methanone], for which the AC50 (A375 R408W cells) is 1 to 5 µM.

Turning to `O=C(c1ocnc1C(F)(F)F)N1CCc2[nH]cnc2[C@@H]1c1nc2c(F)ccc(F)c2o1` [Example 796, (R)-(4-(4,7-difluorobenzo[d]oxazol-2-yl)-6,7-dihydro-1H-imidazo[4,5-c]pyridin-5(4H)-yl)(4-(trifluoromethyl)oxazol-5-yl)methanone], the AC50 (A375 R408W cells) fell in the range of 0.5 to 1 µM.

As for `Cc1ccc2nc(C3c4nc[nH]c4CCN3C(=O)c3nnc(C(C)(C)O)o3)oc2c1` (stereo not drawn), the AC50 under setting [1] was 1 to 5 µM.

With `O=C(CC1CC1)N1CCc2[nH]cnc2[C@H]1c1nc2cc(F)ccc2o1` [Example 37, (S)-2-cyclopropyl-1-(4-(5-fluorobenzo[d]oxazol-2-yl)-6,7-dihydro-1H-imidazo[4,5-c]pyridin-5(4H)-yl)ethanone], the AC50 (A375 R408W cells) was in the range of 1 to 5 µM.

Regarding `O=C(c1cnn2cc(F)ccc12)N1CCc2[nH]cnc2C1c1nc2cc(F)ccc2o1` (stereo not drawn), under setting [1], the half-maximal activity concentration (AC50) is not below 5 µM.

For the compound `COc1ccc(-c2nnc(C(=O)N3CCc4[nH]cnc4[C@@H]3c3nc4cc(F)ccc4o3)o2)nc1` [Example 441, (R)-(4-(5-fluorobenzo[d]oxazol-2-yl)-6,7-dihydro-1H-imidazo[4,5-c]pyridin-5(4H)-yl)(5-(5-methoxypyridin-2-yl)-1,3,4-oxadiazol-2-yl)methanone], the AC50 (A375 R408W cells) is 1 to 5 µM.

Consider `O=C(c1ocnc1C(F)F)N1Cc2[nH]cnc2[C@H]1c1nc2ccccc2o1` [Example 921, (S)-(4-(benzo[d]oxazol-2-yl)-4,6-dihydropyrrolo[3,4-d]imidazol-5(1H)-yl)(4-(difluoromethyl)oxazol-5-yl)methanone], for which, where the note is “A375 R408W cells”, the AC50 was 1 to 5 µM.

Turning to `O=C(c1oc(-c2cncnc2)nc1C(F)F)N1CCc2[nH]cnc2[C@@H]1c1nc2cccc(F)c2o1` [Example 741, (R)-(4-(difluoromethyl)-2-(pyrimidin-5-yl)oxazol-5-yl)(4-(7-fluorobenzo[d]oxazol-2-yl)-6,7-dihydro-1H-imidazo[4,5-c]pyridin-5(4H)-yl)methanone], the concentration at half-maximal activity (AC50) (A375 R408W cells) was not above 0.5 µM.

Take `O=C(c1oc(-c2ccc(F)cn2)nc1C(F)F)N1CCc2[nH]cnc2[C@@H]1c1nc2cccc(F)c2o1` [Example 631, (R)-(4-(difluoromethyl)-2-(5-fluoropyridin-2-yl)oxazol-5-yl)(4-(7-fluorobenzo[d]oxazol-2-yl)-6,7-dihydro-1H-imidazo[4,5-c]pyridin-5(4H)-yl)methanone]: where the note is “A375 R408W cells”, the AC50 was not above 0.5 µM.

Turning to `O=C(c1ccn(-c2ccccn2)n1)N1CCc2[nH]cnc2C1c1nc2cccc(F)c2o1` (stereo not drawn), the half-maximal activity concentration (AC50) under setting [1] lay within 1 to 5 µM.

As for `Cc1ccc2oc([C@H]3c4nc[nH]c4CCN3C(=O)c3nnc(-c4cc[nH]n4)o3)nc2c1` [Example 356, (R)-(5-(1H-pyrazol-3-yl)-1,3,4-oxadiazol-2-yl)(4-(5-methylbenzo[d]oxazol-2-yl)-6,7-dihydro-1H-imidazo[4,5-c]pyridin-5(4H)-yl)methanone], where the note is “A375 R408W cells”, the half-maximal activity concentration (AC50) was 1 to 5 µM.

For `O=C(c1cnco1)N1CCc2[nH]cnc2[C@@H]1c1nc2cccc(F)c2o1` [Example 282, (R)-(4-(7-fluorobenzo[d]oxazol-2-yl)-6,7-dihydro-1H-imidazo[4,5-c]pyridin-5(4H)-yl)(oxazol-5-yl)methanone], for the setting “A375 R408W cells”, the AC50 lay in the range of 1 to 5 µM.

As to `Cn1cc(-c2nnc(C(=O)N3CCc4[nH]cnc4C3c3nc4ccc(F)cc4o3)o2)cn1` (stereo not drawn), the AC50 under setting [1] fell in the range of 1 to 5 µM.

On to `Cc1ccc2oc([C@H]3c4nc[nH]c4CCN3C(=O)c3oc(-c4ccn(C)n4)nc3C(F)F)nc2c1` [Example 756, (R)-(4-(difluoromethyl)-2-(1-methyl-1H-pyrazol-3-yl)oxazol-5-yl)(4-(5-methylbenzo[d]oxazol-2-yl)-6,7-dihydro-1H-imidazo[4,5-c]pyridin-5(4H)-yl)methanone], for which the AC50 (A375 R408W cells) was 1 to 5 µM.

With `Cc1cc(F)ccc1-c1nnc(C(=O)N2CCc3[nH]cnc3[C@@H]2c2nc3cc(F)ccc3o2)o1` [Example 78, (R)-(5-(4-fluoro-2-methylphenyl)-1,3,4-oxadiazol-2-yl)(4-(5-fluorobenzo[d]oxazol-2-yl)-6,7-dihydro-1H-imidazo[4,5-c]pyridin-5(4H)-yl)methanone], for the setting “A375 R408W cells”, the half-maximal activity concentration (AC50) is 1 to 5 µM.
